What follows are compounds tested against T1, Recombinant human EP300 containing the bromodomain (EP300-BD (1040-1161)) (Homo sapiens, UniProt Q09472) (assay: EP300 Alphascreen binding assay).
T1 construct: Recombinant human EP300 bromodomain (EP300-BD (1040-1161)); made in house; host or cells: E. coli BL21-CodonPlus (DE3), modified pET vector
T1 sequence (Q09472 1040-1161): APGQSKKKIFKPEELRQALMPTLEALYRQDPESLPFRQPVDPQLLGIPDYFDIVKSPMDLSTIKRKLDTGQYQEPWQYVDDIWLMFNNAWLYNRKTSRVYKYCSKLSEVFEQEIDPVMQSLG
Protocol: EP300 Alphascreen Binding Assay
Binding of compounds of Formula (I) with EP300 was assessed using Alphascreen™ binding assay. The inhibition of the interaction between the EP300 bromodomain and its acetylated target protein was measured quantitatively using recombinant EP300 protein, an acetylated Histone 3 peptide and AlphaScreen™ technology. In absence of inhibition of the EP300 protein bound to AlphaScreen™ nickel chelate acceptor beads can interact with the acetylated Histone 3 peptide which is immobilized by the AlphaScreen™ Streptavidin coated beads. This interaction brings donor and acceptor beads in proximity. The close proximity allows the singlet oxygen produced by laser excitation of the donor beads to reach the acceptor beads and generate a luminescence signal. EP300 inhibitors result in a decrease in the proximity signal through an inhibition of the EP300—acetylated peptide interaction.
Recombinant human EP300 containing the bromodomain (EP300-BD (1040-1161)) was prepared and purified as described in protein expression and purification session. The peptide is human Histone H345-64K56Ac-Biotin (Anaspec CA, USA).
Protocol for EP300 assay: All components were prepared in buffer composed of 50 mM HEPES pH 7.5, 50 mM NaCl, 0.01% BSA, 0.01% Triton X-100, 2 mM DTT. Test compounds and DMSO vehicle were diluted 1:50 in buffer and a 4 μL volume is transferred to an Alphaplate. 5.5 μL of EP300 protein and 5.5 μL of peptide were added to wells containing 4 μL of various concentrations of test compounds of Formula (I) or DMSO vehicle in an Alphaplate (PerkinElmer GA, USA) and incubated for 1 hour at room temperature. 5 μL donor and acceptor bead mixture was then added with final concentrations of 7.5 μg/ml. 60 minutes after bead addition, Alpha signal is read on the Envision spectrometer (λEx 680 nm, λEm 520-620 nm). Final concentrations of bromodomain proteins and peptide are as shown below.
All data were normalized to the mean of 16 high and 16 low control wells on each plate. A four parameter curve fit of the following formula was then applied: Y=A+((B−A)/(1+((C/x)^D))) Where ‘A’ is the minimum, ‘B’ is the maximum, ‘C’ is the IC50 and ‘D’ is the Hill slope. Protein Expression and Purification
Recombinant human EP300 bromodomain (EP300-BD (1040-1161)) was expressed in E. coli cells (in a modified pET vector) with an N-terminal six-His tag and purified using a combination of both IMAC (Ni-affinity) and size exclusion chromatography steps.
Recombinant EP300 protein was expressed using the E. coli strain BL21-CodonPlus (DE3) (Agilent Technologies CA, USA). Cells were grown in Terrific Broth (TB) media to an OD600 of 0.7 at 37° C. at which temperature was reduced to 18° C., protein was induced with 1.0 mM isopropyl-β-D-thiogalactopyranoside (“IPTG”) for 20 hours and harvested by centrifugation at 8500×g for 20 minutes. Cells were re-suspended in 0.1M K2PO4 pH 8.0, 250 mM NaCl, 10% Glycerol, 0.75% NP-40, 25 mM Imidazole, with 0.2 mg/ml Lysozyme, 0.2 mM phenylmethanesulfonyl fluoride (“PMSF”), 25 μg/ml DNase I, incubated on ice for 30 minutes and lysed with a cell disruptor (MicroFluidics MA, USA). The lysate was clarified by centrifugation at 20,000×g for 1 hour. The protein was captured with Ni-NTA resin (Life Technologies, USA). Contaminating proteins were washed off with 50 mM HEPES pH 7.5, 500 mM NaCl, and 5% Glycerol. Following 3× wash steps, protein was eluted step wise using 10, 25, 50, 100, 150, and 250 mM Imidazole in 50 mM HEPES pH 7.5, 500 mM NaCl, and 5% glycerol. The protein was further purified using a size exclusion column (26/600 Superdex 200, GE Biosciences NJ, USA) in 10 mM HEPES pH 7.5, […].
With `COc1cc(C(=O)O)cc(OC)c1-c1cn([C@@H](C)c2ccccn2)c2ncc(-c3c(C)noc3C)cc12` [P-0103, (S)-4-(5-(3,5-dimethylisoxazol-4-yl)-1-(1-(pyridin-2-yl)ethyl)-1H-pyrrolo[2,3-b]pyridin-3-yl)-3,5-dimethoxybenzoic acid] the IC50 was 0.1 to 1000 nM. `COc1cc(C(=O)O)cc(O)c1-c1cn([C@@H](C)c2ccccn2)c2ncc(-c3c(C)noc3C)cc12` [P-0144, (S)-4-(5-(3,5-dimethylisoxazol-4-yl)-1-(1-(pyridin-2-yl)ethyl)-1H-pyrrolo[2,3-b]pyridin-3-yl)-3-hydroxy-5-methoxybenzoic acid] gave an IC50 of 0.1 to 1000 nM. `Cc1noc(C)c1-c1cnc2c(C(=O)c3cccc(OC(F)F)c3)cn(-c3c(Cl)cc(C(=O)O)cc3Cl)c2c1` [P-0129, 3,5-dichloro-4-(3-(3-(difluoromethoxy)benzoyl)-6-(3,5-dimethylisoxazol-4-yl)-1H-pyrrolo[3,2-b]pyridin-1-yl)benzoic acid] showed an IC50 of 0.1 to 1000 nM. `Cc1noc(C)c1-c1cnc2c(-c3ccc(C(=O)O)cc3)c(C(F)(F)F)n([C@@H](C)c3ccccn3)c2c1` [P-0154, (S)-4-(6-(3,5-dimethylisoxazol-4-yl)-1-(1-(pyridin-2-yl)ethyl)-2-(trifluoromethyl)-1H-pyrrolo[3,2-b]pyridin-3-yl)benzoic acid] was tested, and the IC50 was 0.1 to 1000 nM. With `Cc1noc(C)c1-c1cnc2c(-c3cc(C(=O)O)ccc3Cl)cn(C(C)(c3ccccn3)c3ccccn3)c2c1` [P-0164, 4-chloro-3-(1-(1,1-di(pyridin-2-yl)ethyl)-6-(3,5-dimethylisoxazol-4-yl)-1H-pyrrolo[3,2-b]pyridin-3-yl)benzoic acid] the IC50 was 0.1 to 1000 nM. In the case of `Cc1noc(C)c1-c1cnc2c(c1)c(-c1nccc(C(=O)O)n1)cn2[C@@H](C)c1ccccn1` [P-0107, (S)-2-(5-(3,5-dimethylisoxazol-4-yl)-1-(1-(pyridin-2-yl)ethyl)-1H-pyrrolo[2,3-b]pyridin-3-yl)pyrimidine-4-carboxylic acid], the IC50 is reported as 1000 to 8000 nM. In the case of `Cc1noc(C)c1-c1cnc2c(-c3cccc(C(=O)O)c3)c(C(F)(F)F)n([C@@H](C)c3ccccn3)c2c1` [P-0162, (S)-3-(6-(3,5-dimethylisoxazol-4-yl)-1-(1-(pyridin-2-yl)ethyl)-2-(trifluoromethyl)-1H-pyrrolo[3,2-b]pyridin-3-yl)benzoic acid], the IC50 is reported as 0.1 to 1000 nM. For `Cc1noc(C)c1-c1cnc2c(CC3CCC3)cn(-c3c(OC(C)C)cc(C(=O)O)cc3OC(C)C)c2c1` [P-0111, 4-(3-(cyclobutylmethyl)-6-(3,5-dimethylisoxazol-4-yl)-1H-pyrrolo[3,2-b]pyridin-1-yl)-3,5-diisopropoxybenzoic acid], the IC50 was 0.1 to 1000 nM. `Cc1noc(C)c1-c1cnc2c(c1)c(-c1ccc(C(=O)O)cc1OC(F)(F)F)cn2C(C1CC1)C1CC1` [P-0156, 4-(1-(dicyclopropylmethyl)-5-(3,5-dimethylisoxazol-4-yl)-1H-pyrrolo[2,3-b]pyridin-3-yl)-3-(trifluoromethoxy)benzoic acid] was tested, and the IC50 was 0.1 to 1000 nM. Work on `Cc1noc(C)c1-c1cnc2c(Cc3cccc(OCc4ccccc4)c3)cn(-c3c(Cl)cc(C(=O)O)cc3Cl)c2c1` [P-0132, 4-(3-(3-(benzyloxy)benzyl)-6-(3,5-dimethylisoxazol-4-yl)-1H-pyrrolo[3,2-b]pyridin-1-yl)-3,5-dichlorobenzoic acid] yielded an IC50 of 0.1 to 1000 nM. In the case of `Cc1noc(C)c1-c1cnc2c(-c3ccccc3C#N)cn(C(C)(c3ccccn3)c3ccccn3)c2c1` [P-0169, 2-(1-(1,1-di(pyridin-2-yl)ethyl)-6-(3,5-dimethylisoxazol-4-yl)-1H-pyrrolo[3,2-b]pyridin-3-yl)benzonitrile], the IC50 is reported as 0.1 to 1000 nM. Work on `CCOc1cc(C(=O)O)cc(OCC)c1-n1cc(-c2ccccc2)c2ncc(-c3c(C)noc3C)cc21` [P-0168, 4-(6-(3,5-dimethylisoxazol-4-yl)-3-phenyl-1H-pyrrolo[3,2-b]pyridin-1-yl)-3,5-diethoxybenzoic acid] yielded an IC50 of 0.1 to 1000 nM. Work on `CCOc1cc(C(=O)O)cc(OCC)c1-n1cc(CC2CCC2)c2ncc(-c3c(C)noc3C)cc21` [P-0109, 4-(3-(cyclobutylmethyl)-6-(3,5-dimethylisoxazol-4-yl)-1H-pyrrolo[3,2-b]pyridin-1-yl)-3,5-diethoxybenzoic acid] yielded an IC50 of 0.1 to 1000 nM.

Source: US11446287B2, “Compounds and methods for EP300 or CBP modulation and indications therefor” (Opna Immuno-Oncology SA, priority 2019, dated 2022)
